Source: PMC7277541, “Antimicrobial and Antifungal Activities of Terpene-Derived Palladium Complexes” (Antibiotics, 2020)
In brackets after ≈: the same amount, converted by molar mass. Several values for one entry are separate records, joined by “and”; a condition that tells them apart may be missing. Identical values can stand only once.

System: S. aureus (MRSA) ATCC 43300
Test: Antibacterial MIC assay, S. aureus (MRSA)
Assay type: cell-based, Staphylococcus aureus
Conditions: CAMHB, 18 h, growth inhibited by ≥ 80%, range tested 0.25 to 32 μg/mL, n = 2
Method: Dry compounds were dissolved in dimethyl sulfoxide (DMSO), and serially diluted 2-fold to produce an 8-point dose response with DMSO/water and then added into microtiter plates with a final DMSO concentration of 0.5%, providing a concentration range of 0.25 to 32 μg/mL. Screening against bacteria and yeasts for antimicrobial activity and toxicity against mammalian cells was performed in duplicate (n = 2).
For the bacterial assays, each bacterial strain was cultured in Cation-Adjusted Mueller Hinton Broth (CAMHB; Bacto Laboratories 212322) at 37 °C overnight. Bacterial strains tested were methicillin resistant S. aureus (methicillin-resistant Staphylococcus aureus - MRSA) ATCC 43300, E. coli ATCC 25922, K. pneumoniae K6/ESBL ATCC 700603, P. aeruginosa ATCC 27853, A. baumannii ATCC 19606. A sample of each culture was then diluted 40-fold in fresh CAMHB and incubated at 37 °C for 1.5–3 h. The resultant mid-log phase cultures were diluted with CAMHB (CFU/mL measured by OD600), then added to each well of the compound-containing plates (384-well non-binding surface (NBS) plates; Corning CLS3640), giving a final cell density of 5 × 10^5 CFU/mL and a total volume of 50 μL. Plates were covered and incubated at 37 °C for 18 h without shaking. Inhibition of bacterial growth was determined by measuring absorbance at 600 nm (OD600), using media only as negative control and bacteria without inhibitors as positive control. MIC values were determined as the lowest concentration at which the growth was inhibited by ≥ 80% (equivalent to no visible growth by eye). Colistin sulfate (Sigma Aldrich, Castle Hill, Australia C4461) and vancomycin HCl (Sigma Aldrich, 861987) were used as positive inhibitor controls on each plate for Gram-negative and Gram-positive bacteria, respectively.

SMILES | Minimum inhibitory concentration (MIC) S. aureus ATCC 43300 [µg/mL]
CN(C)CCN=CC1=CCC2CC1C2(C)C.[Cl][Pd][Cl] (stereo not drawn) [Compound 11] | >32
C[C@H](N[C@@H]1C[C@H]2C[C@H](C2(C)C)[C@@]1(C)O)c1cccc[c]1[Pd][Cl].C[C@H](N[C@@H]1C[C@H]2C[C@H](C2(C)C)[C@@]1(C)O)c1cccc[c]1[Pd][Cl] [Compound 4] | 32
CC1(C)[C@H]2CC(=NCCN)[C@](C)(O)[C@@H]1C2.[Cl][Pd][Cl] [Compound 8] | >32
CN(C)CCN=C1C[C@H]2C[C@H](C2(C)C)[C@@]1(C)O.[Cl][Pd][Cl] [Compound 9] | >32
CC1(C)[C@@H]2C[C@H]1[C@@](C)(O)[C@H](NCCN[C@@H]1C[C@H]3C[C@H](C3(C)C)[C@@]1(C)O)C2.[Cl][Pd][Cl] [Compound 10] | >32
CC12CCC(C(=NC(c3ccccc3)c3cccc[c]3[Pd][Cl])C1=O)C2(C)C.CC12CCC(C(=NC(c3ccccc3)c3cccc[c]3[Pd][Cl])C1=O)C2(C)C (stereo not drawn) [Compound 3] | 16
CC(C)(C)c1cc(C=NCCN=C2C[C@H]3C[C@H](C3(C)C)[C@@]2(C)O)c([O][Pd][Cl])c(C(C)(C)C)c1 [Compound 6] | 8
CC12CCC(CC1=NCCN=Cc1ccccc1[O][Pd][Cl])C2(C)C (stereo not drawn) [Compound 7] | >32

System: C. albicans ATCC 90028
Test: Antifungal MIC assay, C. albicans
Assay type: cell-based, Candida albicans
Conditions: YNB, 35 °C, 36 h, growth inhibited ≥ 80%; range tested 0.25 to 32 μg/mL; n = 2
Method: All screened compounds were > 95% purity as determined by NMR. Dry compounds were dissolved in dimethyl sulfoxide (DMSO), and serially diluted 2-fold to produce an 8-point dose response with DMSO/water and then added into microtiter plates with a final DMSO concentration of 0.5%, providing a concentration range of 0.25 to 32 μg/mL. Screening against bacteria and yeasts for antimicrobial activity and toxicity against mammalian cells was performed in duplicate (n = 2).
For the fungal assays, yeast strains C. neoformans var. grubii H99 ATCC 208821 and C. albicans ATCC 90028 were cultured for 3 days on Yeast Extract-Peptone Dextrose (YPD; Becton Dickinson 242720) agar at 30 °C. A yeast suspension of 1 × 10^6 to 5 × 10^6 CFU/mL (as determined by OD530) was prepared from five colonies form the agar plates, and subsequently diluted with Yeast Nitrogen Base media (YNB; Becton Dickinson 233520), and added to each well of the compound containing plates (384-well plates, NBS; Corning CLS3640) giving a final cell density of 2.5 × 10^3 CFU/mL and a total volume of 50 μL. Plates were covered and incubated at 35 °C for 36 h without shaking. Growth inhibition of C. albicans was determined measuring absorbance at 630 nm (OD630), while the growth inhibition of C. neoformans was determined measuring the difference in absorbance between 600 and 570 nm (OD600-570), after the addition of resazurin (0.001% final concentration; Sigma R7017) and incubation at 35 °C for 2 h, using media only as negative control and fungi without inhibitors as positive control. MIC values were determined as the lowest concentration at which the growth was inhibited at ≥ 80% (equivalent to no visible growth by eye). Fluconazole (Sigma Aldrich, F8929) was used as a positive inhibitor control on each plate for both strains.

SMILES | Minimum inhibitory concentration (MIC) C. albicans ATCC 90028
CC1(C)[C@H]2CC(=NCCN)[C@](C)(O)[C@@H]1C2.[Cl][Pd][Cl] [Compound 8] | 8—16 μg/mL and 8 μg/mL
CN(C)CCNCC1=CCC2CC1C2(C)C.[Cl][Pd][Cl] (stereo not drawn) [Compound 12] | 2 µg/mL
CN(C)CCN=C1C[C@H]2C[C@H](C2(C)C)[C@@]1(C)O.[Cl][Pd][Cl] [Compound 9] | 8—16 μg/mL and 16 μg/mL
CC1(C)[C@@H]2C[C@H]1[C@@](C)(O)[C@H](NCCN[C@@H]1C[C@H]3C[C@H](C3(C)C)[C@@]1(C)O)C2.[Cl][Pd][Cl] [Compound 10] | 4 µg/mL
CC12CCC(C(=NC(c3ccccc3)c3cccc[c]3[Pd][Cl])C1=O)C2(C)C.CC12CCC(C(=NC(c3ccccc3)c3cccc[c]3[Pd][Cl])C1=O)C2(C)C (stereo not drawn) [Compound 3] | 2 µg/mL
CC(C)(C)c1cc(C=NCCN=C2C[C@H]3C[C@H](C3(C)C)[C@@]2(C)O)c([O][Pd][Cl])c(C(C)(C)C)c1 [Compound 6] | 4—16 μg/mL and 8 μg/mL

System: C. neoformans var. grubii H99 ATCC 208821
Test: Antifungal MIC assay, C. neoformans
Assay type: cell-based, Cryptococcus neoformans
Conditions: Cryptococcus neoformans, ATCC208821, YNB, 35 °C, 36 h, resazurin, growth inhibited ≥ 80%, range tested 0.25 to 32 μg/mL, n = 2, read-out: Minimum inhibitory concentration (MIC) C. neoformans ATCC 208821
Method: Screening against bacteria and yeasts for antimicrobial activity and toxicity against mammalian cells was performed in duplicate (n = 2). […] Becton Dickinson 242720) agar at 30 °C. A yeast suspension of 1 × 10^6 to 5 × 10^6 CFU/mL (as determined by OD530) was prepared from five colonies form the agar plates, and subsequently diluted with Yeast Nitrogen Base media (YNB; Becton Dickinson 233520), and added to each well of the compound containing plates (384-well plates, NBS; […] Plates were covered and incubated at 35 °C for 36 h without shaking. […] Fluconazole (Sigma Aldrich, F8929) was used as a positive inhibitor control on each plate for both strains.

SMILES | MIC [µg/mL]
OC(Cn1cncn1)(Cn1cncn1)c1ccc(F)cc1F [fluconazole, Fluconazole, reference compound] | 8 (≈ 26.1 µM)

Same assay, conditions: YNB, 35 °C, 36 h, resazurin, growth inhibited ≥ 80%, range tested 0.25 to 32 μg/mL, n = 2

SMILES | Minimum inhibitory concentration (MIC) C. neoformans ATCC 208821
CC1(C)[C@H]2CC(=NCCN)[C@](C)(O)[C@@H]1C2.[Cl][Pd][Cl] [Compound 8] | 2—4 μg/mL and 4 μg/mL
CN(C)CCN=C1C[C@H]2C[C@H](C2(C)C)[C@@]1(C)O.[Cl][Pd][Cl] [Compound 9] | 2—4 μg/mL and 2 μg/mL
CC1(C)[C@@H]2C[C@H]1[C@@](C)(O)[C@H](NCCN[C@@H]1C[C@H]3C[C@H](C3(C)C)[C@@]1(C)O)C2.[Cl][Pd][Cl] [Compound 10] | 4 µg/mL
CC12CCC(C(=NC(c3ccccc3)c3cccc[c]3[Pd][Cl])C1=O)C2(C)C.CC12CCC(C(=NC(c3ccccc3)c3cccc[c]3[Pd][Cl])C1=O)C2(C)C (stereo not drawn) [Compound 3] | 0.5 µg/mL
CC(C)(C)c1cc(C=NCCN=C2C[C@H]3C[C@H](C3(C)C)[C@@]2(C)O)c([O][Pd][Cl])c(C(C)(C)C)c1 [Compound 6] | 4—16 μg/mL and 4 μg/mL
CC12CCC(CC1=NCCN=Cc1ccccc1[O][Pd][Cl])C2(C)C (stereo not drawn) [Compound 7] | 4—16 μg/mL and 4 μg/mL

System: human embryonic kidney cells (HEK293, ATCC CRL-1573)
Test: Cytotoxicity assay (resazurin)
Assay type: cell-based
Conditions: HEK293, 20 h incubation
Method: Screening against bacteria and yeasts for antimicrobial activity and toxicity against mammalian cells was performed in duplicate (n = 2). […] HEK293 cells were counted manually in a Neubauer hemocytometer and added to compound-containing plates (384-well plates, tissue culture treated (TC); Corning CLS3712) giving a final density of 5000 cells/well in a total volume of 50 μL, using Dulbecco's Modified Eagle Medium (DMEM; Life Technologies 11995-073) with 10% Fetal Bovine Serum (FBS; GE SH30084.03). […] Sigma R7017) and after further incubation for 3 h at 37 °C in 5% CO2. Media only was used as negative control and cells without inhibitors as positive growth control. CC50 (concentration at 50% cytotoxicity) values were calculated by curve fitting the inhibition values vs. log(concentration) using a sigmoidal dose-response function, with variable fitting values for bottom, top and slope. Tamoxifen (Sigma Aldrich, Australia T5648) was used as positive inhibitor control on each plate. Selectivity indices (SI) were calculated by dividing the CC50 value (μg/mL) by the MIC value (μg/mL) for a given bacterial or fungal strain.

SMILES | CC50 (concentration of 50% cytotoxicity) [µg/mL]
CN(C)CCN=CC1=CCC2CC1C2(C)C.[Cl][Pd][Cl] (stereo not drawn) [Compound 11] | 10.8
C[C@H](N[C@@H]1C[C@H]2C[C@H](C2(C)C)[C@@]1(C)O)c1cccc[c]1[Pd][Cl].C[C@H](N[C@@H]1C[C@H]2C[C@H](C2(C)C)[C@@]1(C)O)c1cccc[c]1[Pd][Cl] [Compound 4] | 16.6
CC1(C)[C@H]2CC(=NCCN)[C@](C)(O)[C@@H]1C2.[Cl][Pd][Cl] [Compound 8] | >32
CN(C)CCNCC1=CCC2CC1C2(C)C.[Cl][Pd][Cl] (stereo not drawn) [Compound 12] | >32
CN(C)CCN=C1C[C@H]2C[C@H](C2(C)C)[C@@]1(C)O.[Cl][Pd][Cl] [Compound 9] | >32
CC1(C)[C@@H]2C[C@H]1[C@@](C)(O)[C@H](NCCN[C@@H]1C[C@H]3C[C@H](C3(C)C)[C@@]1(C)O)C2.[Cl][Pd][Cl] [Compound 10] | >32
CC12CCC(C(=NC(c3ccccc3)c3cccc[c]3[Pd][Cl])C1=O)C2(C)C.CC12CCC(C(=NC(c3ccccc3)c3cccc[c]3[Pd][Cl])C1=O)C2(C)C (stereo not drawn) [Compound 3] | 6.0
CC(C)(C)c1cc(C=NCCN=C2C[C@H]3C[C@H](C3(C)C)[C@@]2(C)O)c([O][Pd][Cl])c(C(C)(C)C)c1 [Compound 6] | 4.5
CC12CCC(CC1=NCCN=Cc1ccccc1[O][Pd][Cl])C2(C)C (stereo not drawn) [Compound 7] | >32
